Reference: US20230263822A1, “MODULATION OF FACTOR 11 EXPRESSION” (Ionis Pharmaceuticals, Inc., priority 2008, published 2023)
Strand notation (5' to 3'): a small letter for the sugar, then the base; units joined by * are phosphorothioate-linked, units joined directly phosphodiester-linked; [ ] holds rarer units or linkages, { } end groups; capitals alone tell only the bases. e = 2'-O-(2-methoxyethyl) (MOE); [5mC] = 5-methylcytosine; d = 2'-deoxy (DNA)

How the values were obtained:
blood coagulation = assay: PT and aPTT assay in cynomolgus monkeys (Example 46); assay type: in vivo; conditions: platelet poor plasma, relative to PBS group
How it was run: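 Male and female monkeys received antisense oligonucleotide subcutaneously at 25 mg/kg, three times weekly in week 1 and twice weekly in weeks 2–8, with PBS as control. PT and aPTT were measured on platelet-poor plasma from blood taken during dosing. Values are ratios to the PBS group raised to the tissue-factor ISI (INR).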

[1] = Hematology assays in cynomolgus monkeys (Example 46); assay type: in vivo
How it was run: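 Two male and two female monkeys per group received antisense oligonucleotide subcutaneously at 25 mg/kg, three times weekly in week 1 then twice weekly through week 8; PBS controls dosed identically. Blood sampled pre-dose and repeatedly during dosing for PT, aPTT and hematologic factors; necropsy on day 55.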

ISIS 449709: 3-8-3, 4-8-4, 2-10-2, 3-10-3 or 4-10-4 MOE microwalk gapmer (Table 46) (antisense eG*e[5mC]*eA*e[5mC]*dA*dG*dT*dT*dT*d[5mC]*dT*dG*dG*d[5mC]*eA*eG*eG*e[5mC])
PT ratio (INR) (blood coagulation; Day 10): 0.95
aPTT ratio relative to PBS group (blood coagulation; Day 10): 0.99
PT ratio (INR) (blood coagulation; Day 17): 0.95
aPTT ratio relative to PBS group (blood coagulation; Day 17): 1.03
PT ratio (INR) (blood coagulation; Day 24): 0.95
aPTT ratio relative to PBS group (blood coagulation; Day 24): 1.05
PT ratio (INR) (blood coagulation; Day 31): 0.95
aPTT ratio relative to PBS group (blood coagulation; Day 31): 1.08
PT ratio (INR) (blood coagulation; Day 38): 0.97
aPTT ratio relative to PBS group (blood coagulation; Day 38): 1.08
PT ratio (INR) (blood coagulation; Day 45): 0.97
aPTT ratio relative to PBS group (blood coagulation; Day 45): 1.15
PT ratio (INR) (blood coagulation; Day 52): 0.99
aPTT ratio relative to PBS group (blood coagulation; Day 52): 1.09
PT ratio (INR) (blood coagulation; Day 55): 1.03
aPTT ratio relative to PBS group (blood coagulation; Day 55): 1.17
PT ratio (INR) (blood coagulation; Day −5): 0.96
aPTT ratio relative to PBS group (blood coagulation; Day −5): 0.91
PT ratio (INR) (blood coagulation; Day −14): 1.00
aPTT ratio relative to PBS group (blood coagulation; Day −14): 0.99
HCT ([1]; Day 17): 43%
MCH ([1]; Day 17): 22.5 pg
MCHC ([1]; Day 17): 30.7 g/dL
MCV ([1]; Day 17): 73 fL
RBC count ([1]; Day 17): 5.9e+06 µL⁻¹
WBC count ([1]; Day 17): 11000 µL⁻¹
hemoglobin content ([1]; Day 17): 13.2 g/dL
monocytes ([1]; Day 17): 3.0%
neutrophils ([1]; Day 17): 89%
platelet count ([1]; Day 17): 449 ×100/μL
HCT ([1]; Day 31): 42%
MCH ([1]; Day 31): 22.2 pg
MCHC ([1]; Day 31): 30.7 g/dL
MCV ([1]; Day 31): 73 fL
RBC count ([1]; Day 31): 5.9e+06 µL⁻¹
WBC count ([1]; Day 31): 11000 µL⁻¹
hemoglobin content ([1]; Day 31): 13.1 g/dL
monocytes ([1]; Day 31): 2.8%
neutrophils ([1]; Day 31): 81%
platelet count ([1]; Day 31): 471 ×100/μL
HCT ([1]; Day 45): 41%
MCH ([1]; Day 45): 21.0 pg
MCHC ([1]; Day 45): 31.1 g/dL
MCV ([1]; Day 45): 71 fL
RBC count ([1]; Day 45): 5.7e+06 µL⁻¹
WBC count ([1]; Day 45): 11000 µL⁻¹
hemoglobin content ([1]; Day 45): 12.6 g/dL
monocytes ([1]; Day 45): 3.6%
neutrophils ([1]; Day 45): 77%
platelet count ([1]; Day 45): 418 ×100/μL
HCT ([1]; Day 55): 40%
MCH ([1]; Day 55): 22.0 pg
MCHC ([1]; Day 55): 31.2 g/dL
MCV ([1]; Day 55): 71 fL
RBC count ([1]; Day 55): 5.7e+06 µL⁻¹
WBC count ([1]; Day 55): 10000 µL⁻¹
hemoglobin content ([1]; Day 55): 12.5 g/dL
monocytes ([1]; Day 55): 3.4%
neutrophils ([1]; Day 55): 115%
platelet count ([1]; Day 55): 441 ×100/μL
HCT ([1]; Day-5): 42%
MCH ([1]; Day-5): 22.3 pg
MCHC ([1]; Day-5): 30.3 g/dL
MCV ([1]; Day-5): 74 fL
RBC count ([1]; Day-5): 5.8e+06 µL⁻¹
WBC count ([1]; Day-5): 10000 µL⁻¹
hemoglobin content ([1]; Day-5): 12.8 g/dL
monocytes ([1]; Day-5): 2.0%
neutrophils ([1]; Day-5): 101%
platelet count ([1]; Day-5): 481 ×100/μL
HCT ([1]; Day-14): 41%
MCH ([1]; Day-14): 22.4 pg
MCHC ([1]; Day-14): 31.4 g/dL
MCV ([1]; Day-14): 72 fL
RBC count ([1]; Day-14): 5.8e+06 µL⁻¹
WBC count ([1]; Day-14): 11000 µL⁻¹
hemoglobin content ([1]; Day-14): 12.8 g/dL
monocytes ([1]; Day-14): 4.0%
neutrophils ([1]; Day-14): 73%
platelet count ([1]; Day-14): 456 ×100/μL
